Assays:
soybean = test: Test C pre-/postemergence herbicide test; assay type: in vivo, Glycine max; conditions: for Plant response rating, Soybean / Plant response rating (0 = no effect, 100 = complete control), Soybean: preemergence
In short: (§1)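 Pre- and postemergence application, solvent/surfactant formulation; post at 1- to 4-leaf stage (2–18 cm). Greenhouse 12–14 d. Visual rating vs controls, 0 = no effect, 100 = complete control.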

morningglory = test: Test A pre-/postemergence herbicide test; assay type: in vivo, Ipomoea spp.
In short: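 Visual injury rating on a 0–100 scale (0 no effect, 100 complete control) versus untreated controls, about ten days after treatment in greenhouse. Pre: directed soil spray onto seeded sandy loam. Post: spray to runoff on plants 2–10 cm tall at one- to two-leaf stage.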

[1] = system: smallflower umbrella sedge; test: Test C flooded paddy test; assay type: in vivo, Cyperus difformis; conditions: for Plant response rating, Sedge, Umbrella: 500 g ai/ha, visual rating after 12 to 14 days
yellow nutsedge = test: Test C pre-/postemergence herbicide test; assay type: in vivo, Cyperus esculentus; conditions: for Plant response rating, Nutsedge, Yellow / Plant response rating (0 = no effect, 100 = complete control), Nutsedge, Yellow: preemergence
In short: as §1

rice [2] = test: Test B pre-/postemergence herbicide test; assay type: in vivo, Oryza sativa; conditions: preemergence
In short: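 Herbicidal effect was judged by eye on a 0–100 scale after plants stood 13 to 15 days in the greenhouse following pre- or postemergence treatment with surfactant-containing formulations.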

eastern black nightshade = test: Test C pre-/postemergence herbicide test; assay type: in vivo, Solanum ptycanthum; conditions: for Plant response rating, Nightshade / Plant response rating (0 = no effect, 100 = complete control), Nightshade: preemergence
In short: as §1

goosegrass = test: Test C pre-/postemergence herbicide test; assay type: in vivo, Eleusine indica; conditions: for Plant response rating, Goosegrass / Plant response rating (0 = no effect, 100 = complete control), Goosegrass: preemergence
In short: as §1

rice [3] = test: Test C flooded paddy test; assay type: in vivo, Oryza sativa; conditions: for Plant response rating, Rice: 500 g ai/ha, visual rating after 12 to 14 days
In short: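 Injury scored visually against controls on a 0 (no effect) to 100 (complete control) scale, 12 to 14 days after treatment in greenhouse. Flooded paddy plants treated at 2-leaf stage; postemergence plants at 1- to 4-leaf stage, 2 to 18 cm tall.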

[4] = 500 g ai/ha, scale 0 to 100 (0 no effect, 100 complete control), visual, 12 to 14 days
[5] = Postemergence, 500 g ai/ha, 0 to 100 scale, 0 no effect, 100 complete control
[6] = Postemergence, 2000 g ai/ha, 0 to 100 scale, 0 no effect, 100 complete control
[7] = 125 g ai/ha, scale 0 to 100 (0 no effect, 100 complete control)
[8] = 250 g ai/ha, scale of 0 to 100, 0 is no effect, 100 is complete control
[9] = scale 0 to 100 (0 no effect, 100 complete control)
[10] = 125 g ai/ha, scale 0 (no effect) to 100 (complete control), visual, 12 to 14 days
[11] = 250 g ai/ha, scale 0 to 100 (0 no effect, 100 complete control), visual, 12 to 14 days
[12] = Preemergence, 500 g ai/ha, visual rating, 0 to 100 scale (0 no effect, 100 complete control)
[13] = Preemergence, 2000 g ai/ha, 0 to 100 scale, 0 no effect, 100 complete control
[14] = 62 g ai/ha, scale 0 to 100 (0 no effect, 100 complete control)
[15] = 125 g ai/ha, scale of 0 to 100, 0 is no effect, 100 is complete control
[16] = 125 g ai/ha, 0 to 100 scale, 0 is no effect, 100 is complete control
[17] = Preemergence, 500 g ai/ha, scale 0 to 100, 0 no effect, 100 complete control

Compound: CCNC(=O)c1ccc(F)c(NC(=O)C2CC(C(C)(C)C)=NN2CC)c1 (racemic) [Compound 269]
- Plant response rating, Soybean (soybean; 62 g ai/ha, scale 0 to 100): 0
- Plant response rating, Soybean (soybean; 250 g ai/ha, scale 0-100): 50
- Plant response rating, Soybean (soybean; [4]): 60
- Morningglory plant response rating (morningglory; [5]): 20
- Plant response rating, Morningglory (morningglory; [6]): 35
- Morningglory plant response rating (morningglory; Preemergence, 2000 g ai/ha, visual rating, 0 to 100 scale (0 no effect, 100 complete control)): 30
- Morningglory plant response rating (morningglory; preemergence, 500 g ai/ha, visual injury, 0 to 100 scale (0 no effect, 100 complete control)): 20
- Sedge, Umbrella plant response rating ([1]; 62 g ai/ha, scale 0 to 100): 45
- Sedge, Umbrella plant response rating [1, 7]: 80
- Sedge, Umbrella plant response rating [1, 8]: 80
- Plant response rating, Sedge, Umbrella [1, 9]: 85
- Plant response rating, Nutsedge, Yellow (yellow nutsedge; 62 g ai/ha, scale 0 to 100): 5
- Plant response rating, Nutsedge, Yellow (yellow nutsedge; [10]): 10
- Plant response rating, Nutsedge, Yellow (yellow nutsedge; 250 g ai/ha, scale 0-100): 40
- Plant response rating, Nutsedge, Yellow (yellow nutsedge; [4]): 60
- Rice plant response rating (0 to 100 scale) (rice [2]; 125 g ai/ha, 0 = no effect, 100 = complete control): 70
- Plant response rating, Rice (rice [2]; 500 g ai/ha, visual rating, 0 = no effect, 100 = complete control): 90
- Plant response rating, Nightshade (eastern black nightshade; 62 g ai/ha, scale 0 to 100): 90
- Plant response rating, Nightshade (eastern black nightshade; [10]): 100
- Plant response rating, Nightshade (eastern black nightshade; 250 g ai/ha, scale 0-100): 100
- Plant response rating, Nightshade (eastern black nightshade; [4]): 100
- Plant response rating, Goosegrass (goosegrass; 62 g ai/ha, scale 0 to 100): 70
- Plant response rating, Goosegrass (goosegrass; [10]): 85
- Plant response rating, Goosegrass (goosegrass; 250 g ai/ha, scale 0-100): 95
- Plant response rating, Goosegrass (goosegrass; [4]): 100
- Rice plant response rating (rice [3]; 62 g ai/ha, scale 0 to 100): 45
- Rice plant response rating (rice [3]; [7]): 50
- Rice plant response rating (rice [3]; [8]): 75
- Plant response rating, Rice (rice [3]; [9]): 80

Compound: CCn1nc(C(C)(C)C)cc1C(=O)Nc1cccc(C(=O)NCC2CC2)c1 [Compound 62]
- Plant response rating, Soybean (soybean; 31 g ai/ha, scale 0 to 100): 0
- Plant response rating (0 = no effect, 100 = complete control), Soybean (soybean; 62 g ai/ha): 0
- Plant response rating, Soybean (soybean; [10]): 0
- Plant response rating, Soybean (soybean; [11]): 30
- Plant response rating, Morningglory (morningglory; [5]): 10
- Plant response rating, Morningglory (morningglory; [6]): 20
- Morningglory plant response rating (morningglory; [12]): 20
- Morningglory plant response rating (morningglory; [13]): 75
- Sedge, Umbrella plant response rating [1, 14]: 45
- Sedge, Umbrella plant response rating [1, 15]: 60
- Sedge, Umbrella plant response rating [1, 8]: 80
- Plant response rating, Sedge, Umbrella [1, 9]: 85
- Plant response rating, Nutsedge, Yellow (yellow nutsedge; 31 g ai/ha, scale 0 to 100): 0
- Plant response rating (0 = no effect, 100 = complete control), Nutsedge, Yellow (yellow nutsedge; 62 g ai/ha): 0
- Plant response rating, Nutsedge, Yellow (yellow nutsedge; [10]): 10
- Plant response rating, Nutsedge, Yellow (yellow nutsedge; [11]): 40
- Plant response rating, Rice (rice [2]; [16]): 0
- Plant response rating, Nightshade (eastern black nightshade; 31 g ai/ha, scale 0 to 100): 80
- Plant response rating (0 = no effect, 100 = complete control), Nightshade (eastern black nightshade; 62 g ai/ha): 80
- Plant response rating, Nightshade (eastern black nightshade; [10]): 90
- Plant response rating, Nightshade (eastern black nightshade; [11]): 95
- Plant response rating, Goosegrass (goosegrass; 31 g ai/ha, scale 0 to 100): 0
- Plant response rating (0 = no effect, 100 = complete control), Goosegrass (goosegrass; 62 g ai/ha): 10
- Plant response rating, Goosegrass (goosegrass; [10]): 70
- Plant response rating, Goosegrass (goosegrass; [11]): 85
- Rice plant response rating (rice [3]; [14]): 15
- Rice plant response rating (rice [3]; [15]): 25
- Rice plant response rating (rice [3]; [8]): 45
- Plant response rating, Rice (rice [3]; [9]): 65

Compound: CCN1CCc2c(NC(=O)c3cc(C(C)(C)C)nn3CC)cccc2C1=O [Compound 63]
- Plant response rating (0 = no effect, 100 = complete control), Soybean (soybean; 62 g ai/ha): 0
- Plant response rating, Soybean (soybean; [10]): 0
- Plant response rating, Soybean (soybean; [11]): 10
- Soybean plant response rating (soybean; [17]): 70
- Plant response rating, Morningglory (morningglory; [5]): 15
- Plant response rating, Morningglory (morningglory; [6]): 15
- Morningglory plant response rating (morningglory; [12]): 10
- Morningglory plant response rating (morningglory; [13]): 70
- Sedge, Umbrella plant response rating [1, 14]: 0
- Sedge, Umbrella plant response rating [1, 15]: 70
- Sedge, Umbrella plant response rating [1, 8]: 80
- Plant response rating, Sedge, Umbrella [1, 9]: 90
- Plant response rating (0 = no effect, 100 = complete control), Nutsedge, Yellow (yellow nutsedge; 62 g ai/ha): 0
- Plant response rating, Nutsedge, Yellow (yellow nutsedge; [10]): 0
- Plant response rating, Nutsedge, Yellow (yellow nutsedge; [11]): 0
- Nutsedge, Yellow plant response rating (yellow nutsedge; [17]): 40
- Plant response rating, Rice (rice [2]; [16]): 50
- Plant response rating (0 = no effect, 100 = complete control), Nightshade (eastern black nightshade; 62 g ai/ha): 70
- Plant response rating, Nightshade (eastern black nightshade; [10]): 90
- Plant response rating, Nightshade (eastern black nightshade; [11]): 95
- Nightshade plant response rating (eastern black nightshade; [17]): 95
- Plant response rating (0 = no effect, 100 = complete control), Goosegrass (goosegrass; 62 g ai/ha): 10
- Plant response rating, Goosegrass (goosegrass; [10]): 45
- Plant response rating, Goosegrass (goosegrass; [11]): 60
- Goosegrass plant response rating (goosegrass; [17]): 90
- Rice plant response rating (rice [3]; [14]): 0
- Rice plant response rating (rice [3]; [15]): 0
- Rice plant response rating (rice [3]; [8]): 15
- Plant response rating, Rice (rice [3]; [9]): 50

Source: patent US20060069132A1, “Azolecarboxamide herbicides” (priority 2004, published 2006)
